Measurements reported in PubChem BioAssay (NCI).
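Where inhibition never reached the appropriate level, the endpoint shown equals the highest concentration tested. Otherwise, values were interpolated linearly from a five-concentration, 48-hour dose response in 96-well plates. TGI: concentration producing complete growth inhibition.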

Key:
Assay in all cases: DTP human tumour cell line panel, 48 h
SNB-75 CNS = test system: SNB-75 CNS
SK-MEL-2 melanoma = test system: SK-MEL-2 melanoma
SF-295 CNS = test system: SF-295 CNS
CCRF-CEM leukemia = test system: CCRF-CEM leukemia
MDA-N = test system: MDA-N
A549 NSCLC = test system: A549 NSCLC
SK-OV-3 ovarian = test system: SK-OV-3 ovarian
HL-60(TB) leukemia = test system: HL-60(TB) leukemia
SN12C renal = test system: SN12C renal
NCI-H522 lung = test system: NCI-H522 lung
OVCAR-3 ovarian = test system: OVCAR-3 ovarian
HCT-15 colon = test system: HCT-15 colon
HT29 colon = test system: HT29 colon
PC-3 prostate = test system: PC-3 prostate
NCI/ADR-RES ovarian = test system: NCI/ADR-RES ovarian
NCI-H460 lung = test system: NCI-H460 lung
K-562 leukemia = test system: K-562 leukemia
SR leukemia = test system: SR leukemia
KM12 colon = test system: KM12 colon
SF-268 CNS = test system: SF-268 CNS
UACC-257 melanoma = test system: UACC-257 melanoma
RXF 393 renal = test system: RXF 393 renal
ACHN renal = test system: ACHN renal
MDA-MB-435 = test system: MDA-MB-435
OVCAR-4 ovarian = test system: OVCAR-4 ovarian
SNB-19 CNS = test system: SNB-19 CNS
BT-549 breast = test system: BT-549 breast
U251 CNS = test system: U251 CNS
TK-10 renal = test system: TK-10 renal
HCT-116 colon = test system: HCT-116 colon
HCC-2998 colon = test system: HCC-2998 colon
MDA-MB-231 breast = test system: MDA-MB-231 breast
EKVX NSCLC = test system: EKVX NSCLC
SF-539 CNS = test system: SF-539 CNS
MCF7 breast = test system: MCF7 breast
LOX IMVI melanoma = test system: LOX IMVI melanoma
OVCAR-5 ovarian = test system: OVCAR-5 ovarian
SK-MEL-28 melanoma = test system: SK-MEL-28 melanoma
T-47D breast = test system: T-47D breast
UO-31 renal = test system: UO-31 renal
SW-620 colon = test system: SW-620 colon
RPMI-8226 leukemia = test system: RPMI-8226 leukemia
OVCAR-8 ovarian = test system: OVCAR-8 ovarian
NCI-H226 lung = test system: NCI-H226 lung
COLO 205 colon = test system: COLO 205 colon
SK-MEL-5 melanoma = test system: SK-MEL-5 melanoma
IGROV1 ovarian = test system: IGROV1 ovarian
786-0 renal = test system: 786-0 renal
M14 melanoma = test system: M14 melanoma
MOLT-4 leukemia = test system: MOLT-4 leukemia
HOP-62 NSCLC = test system: HOP-62 NSCLC
NCI-H23 lung = test system: NCI-H23 lung
HOP-92 NSCLC = test system: HOP-92 NSCLC
UACC-62 melanoma = test system: UACC-62 melanoma
CAKI-1 renal = test system: CAKI-1 renal
DU-145 prostate = test system: DU-145 prostate
HS 578T breast = test system: HS 578T breast

Measured: TGI

CC1=C(C(=O)NCC(C)O)CC(C(=O)NCC(C)O)=C(C)N1 (configuration not stated)
> 100 µM: SNB-75 CNS | SK-MEL-2 melanoma | SF-295 CNS | CCRF-CEM leukemia | MDA-N | A549 NSCLC | SK-OV-3 ovarian | HL-60(TB) leukemia | SN12C renal | NCI-H522 lung | OVCAR-3 ovarian | HCT-15 colon | HT29 colon | PC-3 prostate | NCI/ADR-RES ovarian | NCI-H460 lung | K-562 leukemia | SR leukemia | KM12 colon | SF-268 CNS | UACC-257 melanoma | RXF 393 renal | ACHN renal | MDA-MB-435 | OVCAR-4 ovarian | SNB-19 CNS | BT-549 breast | U251 CNS | TK-10 renal | HCT-116 colon | HCC-2998 colon | MDA-MB-231 breast | EKVX NSCLC | SF-539 CNS | MCF7 breast | LOX IMVI melanoma | OVCAR-5 ovarian | SK-MEL-28 melanoma | T-47D breast | UO-31 renal | SW-620 colon | RPMI-8226 leukemia | OVCAR-8 ovarian | NCI-H226 lung | COLO 205 colon | SK-MEL-5 melanoma | IGROV1 ovarian | 786-0 renal | M14 melanoma | MOLT-4 leukemia | HOP-62 NSCLC | NCI-H23 lung | HOP-92 NSCLC | UACC-62 melanoma | CAKI-1 renal | DU-145 prostate | HS 578T breast
